Patent US20250177353A1 (priority 2021, published 2025)
Where two headings read alike, the source gives them in different places.

Experiments:
[1] = SAD phase I study: plasma pharmacokinetics of 2,4-dinitrophenol after Compound 1 (Table 3); format: in vivo, human; conditions: for Vd/F: 500 mg, read-out: Vz/F, Median
Experimental: A double-blind, placebo-controlled, phase I study of the safety and pharmacokinetics of single ascending doses of compound 1 in healthy volunteers was conducted. The volunteers were orally administered Compound 1 in doses ranging from 30 mg once daily (QD) to 1400 mg QD in a total of 67 subjects (50 active/17 placebo) across 8 cohorts.
Screening procedures occurred on Days -28 to -3. For all Cohorts except Cohort 4 (Fed/Fasted), subjects were admitted to the clinical research unit for up to 4 days. […] Following completion of all safety assessments and blood draws for PK analyses, subjects were discharged on Day 3. The Fed/Fasted cohort remained in the unit and were discharged on Day 7.
Double-blind dosing occurred in cohorts 1 through 8. In these cohorts, six subjects received Compound 1 and two received matching placebo. Doses escalated in the following sequence: 30, 100, 200, 500, 1400, 1050 and 600 mg. • Cohort 4 crossed-over to a fed state (50% fat meal) administration after pharmacokinetics and an inpatient washout had occurred for 72 hours after the first dose with a final dose.
Subjects were admitted to the clinical research unit on Day 1. […] Blood draws for assessment of PK parameters occurred per schedule of assessments. IC were taken per schedule of assessments. Subjects were released on Day 3 following completion of all blood draws and safety assessments. The Fed/Fasted cohort remained in the unit and was discharged on Day 7.
Compound 1 or matching placebo was administered orally as a single dose. All subjects except the fed cohort, were dosed in the morning after an 8-hour fast and remained in a semi-reclined position for 1 hour and fasting for 4 hours post-administration. Capsules were swallowed with 240 mL (8 fluid ounces) of room temperature water.
Cohort 4 was a crossover food effect analysis. Subjects enrolled in Cohort 4 were dosed 30 minutes following the beginning of a standardized (consisting of 50% fat) meal (following a 10-hour fast) to evaluate for food effects. The study drug was administered with room temperature 240 mL (8 fluid ounces) of water.

[2] = MAD study: 2,4-dinitrophenol pharmacokinetics (accumulation, steady state); format: in vivo, human; conditions: MAD cohort 1
Experimental: A double-blind, sponsor-open, placebo-controlled, phase I study of the safety, pharmacokinetics and pharmacodynamics of multiple ascending doses of Compound 1 in high MBI volunteers was conducted. The first cohort of 10 healthy high body mass index (BMI) subjects has completed dosing at 200 mg Compound 1. Two more cohorts are also planned at doses of 400 and 550 mg QD.
With once daily dosing, significant accumulation of 2,4-dinitrophenol is anticipated at steady state.

[3] = human, in vivo, 500 mg
[4] = cited from earlier work
[5] = single dose 30 mg Compound 1, Fasted
[6] = single dose 100 mg Compound 1, Fasted
[7] = single dose 200 mg Compound 1, Fasted
[8] = single dose 500 mg Compound 1, Fasted
[9] = single dose 500 mg Compound 1, Fed
[10] = single dose 600 mg Compound 1, Fasted, Micronized
[11] = single dose 1050 mg Compound 1, Fasted
[12] = single dose 1050 mg Compound 1, Fasted, Micronized
[13] = single dose 1400 mg Compound 1, Fasted, Micronized

## O=[N+]([O-])c1ccc(O)c([N+](=O)[O-])c1 [2,4-dinitrophenol]
[1]; human, oral, single dose 500 mg Compound 1, Fasted
  Vd/F: 735 L
[1]; human, oral, single dose 500 mg Compound 1, Fed
  Vd/F: 269 L
[1]; human, oral, single dose 500 mg Compound 1, Fed, read-out: AUCinf, Median
  AUC(0-inf): 83800 ng·h/mL
[1]; human, oral, single dose 500 mg Compound 1, Fed, read-out: t1/2, Median (converted)
  half-life: 31.2 h
[1]; [5]
  AUC0/24 h, Geometric Mean: 1440 ng·h/mL
  AUC0/24 h, Mean (SD): 1500 (448) h*ng/ML
  AUC0/24 h, Median: 1500 ng·h/mL
  CL/F, Geometric Mean: 7.44 L/h
  CL/F, Mean (SD): 8.04 (3.39) L/h
  CL/F, Median: 9.84 L/h
[1]; [6]
  AUC0/24 h, Geometric Mean: 4660 ng·h/mL
  AUC0/24 h, Mean (SD): 4710 (711) h*ng/ML
  AUC0/24 h, Median: 4820 ng·h/mL
  CL/F, Geometric Mean: 7.61 L/h
  CL/F, Mean (SD): 7.75 (1.70) L/h
  CL/F, Median: 7.87 L/h
[1]; [7]
  AUC0/24 h, Geometric Mean: 11100 ng·h/mL
  AUC0/24 h, Mean (SD): 11200 (1970) h*ng/ML
  AUC0/24 h, Median: 10900 ng·h/mL
  CL/F, Geometric Mean: 6.12 L/h
  CL/F, Mean (SD): 6.35 (1.79) L/h
  CL/F, Median: 7.19 L/h
[1]; [8]
  AUC%extrap, Median: 12.2%
  AUCinf/D, Median: 62.4 ng·h/mL/mg
  CL/F, Geometric Mean: 16.5 L/h
  CL/F, Mean (SD): 17.7 (7.65) L/h
  CL/F, Median: 16.4 L/h
[1]; [9]
  AUC%extrap, Median: 6.56%
  AUCinf/D, Median: 168 ng·h/mL/mg
  CL/F, Median: 5.97 L/h
  λz, Median: 0.0222 h⁻¹
[1]; [10]
  CL/F, Geometric Mean: 2.80 L/h
  CL/F, Mean (SD): 3.20 (1.62) L/h
  CL/F, Median: 2.74 L/h
[1]; [11]
  CL/F, Geometric Mean: 15.2 L/h
  CL/F, Mean (SD): 16.8 (7.60) L/h
  CL/F, Median: 18.3 L/h
[1]; [12]
  CL/F, Geometric Mean: 2.20 L/h
  CL/F, Mean (SD): 2.33 (0.715) L/h
  CL/F, Median: 2.50 L/h
[1]; [13]
  CL/F, Geometric Mean: 3.96 L/h
  CL/F, Mean (SD): 4.12 (1.43) L/h
  CL/F, Median: 3.60 L/h
[2]; Compound 1 200 mg QD for 14 days
  dose accumulation factor: approximately 3.5 fold
[2]; Compound 1 200 mg daily dosing
  time to steady-state: 7 days
[3]
  AUC increase under fed conditions relative to fasted conditions: > 2.0 fold
  Cmax increase under fed conditions relative to fasted conditions: > 1.8 fold
[4]; 2,4-dinitrophenol once daily 1-3 months (Tainter, Simkins)
  increase in RMR: 20-40%
[4]; 2,4-dinitrophenol once daily 1-3 months
  weight loss: 1.4-2.1 lbs./week
[4]; 2,4-dinitrophenol once daily over 1-3 months
  tolerability: well tolerated
[4]; humans (Zhao 2015)
  2,4-dinitrophenol concentrations associated with adverse increases in body temperatures: greater than 28,000 ng/ml
